# Source: US11584744B2 (UNIVERSITY OF WASHINGTON, priority 2017, dated 2023)
# Where “and” joins values, the source holds several entries; their conditions need not be identical. Equal values may be shown once. Read-outs that look alike come from different tables or passages of the source.
# How the values were obtained:
# [1] = test system: S. aureus MRSA (ATCC 33591); experiment: MIC susceptibility testing; assay type: cell-based, Staphylococcus aureus; details: Staphylococcus aureus, MRSA ATCC33591; read-out: (G) MRSA (ATCC33591) MIC
# From the text: (§1) Media and culture conditions. Mueller Hinton broth (MHB), cation adjusted Mueller Hinton broth (CA-MHB), and Brain Heart Infusion broth (BHI) were purchased from Becton Dickinson (Franklin Lakes, N.J.). Tryptic soy agar (TSA) plates, TSA with 5% sheep blood plates, and CA-MHB with 3% laked horse blood were purchased from Remel (San Diego, Calif.). MHB was used to assay all Staphylococcus aureus strains. CA-MHB was used for Staphylococcus epidermidis, Enterococcus faecalis, Enterococcus faecium, Escherichia coli, and Pseudomonas aeruginosa. CA-MHB supplemented with 3% laked horse blood was used for Streptococcus pneumoniae and Streptococcus pyogenes. Staphylococcus, Enterococcus, Escherichia, and Pseudomonas strains were cultured at 37° C. with ambient air. Streptococcus strains were cultured in 37° C. with 5% CO2. Separate conditions for radiolabeled precursor uptake assays are described below.
# (§2) Susceptibility testing: Minimum inhibitory concentration (MIC) determinations were performed in triplicate in 96-well round bottom microtiter plates (Corning, Corning N.Y.) as described by the Clinical and Laboratory Standards Institute (CLSI). Serial two-fold dilutions of compounds were added to plates in 50 μL volumes. An additional 50 μL of media containing bacterial cells (1×10^6 CFUs/mL) was then added to each well. Maximum DMSO concentrations were 0.5%. Plates were incubated at 37° C. for at least 18 h before reading the susceptibility result by optical absorbance (OD600) using a BioTek ELx800. The lowest concentration causing ≥90% growth inhibition compared to the untreated control was recorded as the MIC (and also corresponded to the visual MIC). MICs were measured at least twice and the higher value (if different) was recorded herein.
# [2] = test system: T. cruzi; experiment: T. cruzi growth inhibition; assay type: cell-based, Trypanosoma cruzi; details: read-out: (E) T. cruzi EC50
# [3] = test system: C. parvum; experiment: C. parvum growth inhibition; assay type: cell-based, Cryptosporidium parvum; details: read-out: (J) C. parvum EC50
# [4] = target: T1, MetRS (T. brucei) (Trypanosoma brucei brucei, UniProt Q38C91); experiment: MetRS (T. brucei) enzyme inhibition; assay type: biochemical
# T1 sequence (Q38C91 1-773): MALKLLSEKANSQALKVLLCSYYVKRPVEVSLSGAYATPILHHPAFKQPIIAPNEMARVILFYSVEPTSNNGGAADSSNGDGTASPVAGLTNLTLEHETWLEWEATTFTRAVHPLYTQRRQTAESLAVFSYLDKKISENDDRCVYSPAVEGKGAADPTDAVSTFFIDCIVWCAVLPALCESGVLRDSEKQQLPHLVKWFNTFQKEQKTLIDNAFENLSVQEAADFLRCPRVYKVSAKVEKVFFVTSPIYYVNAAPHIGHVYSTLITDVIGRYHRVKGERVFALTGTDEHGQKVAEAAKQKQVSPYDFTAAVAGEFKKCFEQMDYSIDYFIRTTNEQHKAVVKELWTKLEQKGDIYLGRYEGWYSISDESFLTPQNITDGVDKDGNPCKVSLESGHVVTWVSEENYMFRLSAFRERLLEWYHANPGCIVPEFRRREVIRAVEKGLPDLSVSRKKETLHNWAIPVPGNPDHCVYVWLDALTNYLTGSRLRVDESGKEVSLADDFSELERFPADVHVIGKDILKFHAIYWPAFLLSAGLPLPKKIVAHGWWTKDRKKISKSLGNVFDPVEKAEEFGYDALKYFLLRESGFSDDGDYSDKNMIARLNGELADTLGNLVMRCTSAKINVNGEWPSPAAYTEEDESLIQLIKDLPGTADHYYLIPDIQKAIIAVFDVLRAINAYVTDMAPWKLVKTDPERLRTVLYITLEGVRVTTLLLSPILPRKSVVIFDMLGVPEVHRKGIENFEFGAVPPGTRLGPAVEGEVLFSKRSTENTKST
# [5] = target: MetRS (C. parvum) (Cryptosporidium parvum, UniProt Q5CVN0); experiment: MetRS (C. parvum) enzyme inhibition; assay type: biochemical
# Sequence of MetRS (C. parvum) (Q5CVN0 entry or part of it): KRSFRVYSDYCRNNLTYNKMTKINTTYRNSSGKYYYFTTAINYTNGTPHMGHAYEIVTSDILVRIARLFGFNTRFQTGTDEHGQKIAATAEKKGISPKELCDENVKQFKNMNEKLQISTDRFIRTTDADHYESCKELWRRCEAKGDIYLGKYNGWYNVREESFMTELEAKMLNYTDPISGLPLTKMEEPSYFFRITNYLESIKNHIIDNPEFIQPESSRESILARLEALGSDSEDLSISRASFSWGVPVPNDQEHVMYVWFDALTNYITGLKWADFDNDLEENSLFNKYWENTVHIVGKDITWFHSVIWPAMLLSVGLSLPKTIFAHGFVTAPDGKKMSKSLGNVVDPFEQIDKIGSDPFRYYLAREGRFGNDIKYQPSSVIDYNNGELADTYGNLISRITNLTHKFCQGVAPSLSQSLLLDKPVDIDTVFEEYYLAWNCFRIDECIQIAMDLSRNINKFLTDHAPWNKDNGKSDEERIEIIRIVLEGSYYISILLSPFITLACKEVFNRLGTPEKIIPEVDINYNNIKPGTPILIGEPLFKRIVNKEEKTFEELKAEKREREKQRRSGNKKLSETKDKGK
# [6] = test system: T. brucei; experiment: T. brucei growth inhibition; assay type: cell-based, Trypanosoma brucei; details: read-out: (D) T. brucei EC50
# [7] = test system: S. aureus MSSA (ATCC 29213); experiment: MIC susceptibility testing; assay type: cell-based, Staphylococcus aureus; details: Staphylococcus aureus, S. aureus ATCC 29213; read-out: (F) S. aureus (ATCC 29213) MIC
# From the text: as §1, §2
# [8] = read-out: (C) MetRS (C. parvum) IC50
MIC [1] [µg/mL],EC50 ([2]; Trypanosoma cruzi) [nM],EC50 [2] [nM],EC50 ([3]; Cryptosporidium parvum) [nM],EC50 [3] [nM],IC50 [4],"IC50 [5, 8] [nM]",EC50 ([6]; Trypanosoma brucei) [nM],MIC [7] [µg/mL],EC50 [6] [nM],SMILES,IC50 [5] [nM]
,126,,1500,,,,18.9,0.557,25.6,"CCn1c(Cc2ccc(Cl)cc2Cl)cn(Cc2nc3ccc(F)c(F)c3[nH]2)c1=O [Compound 2262, 4-[(2,4-dichlorophenyl)methyl]-1-[(6,7-difluoro-1H-1,3-benzodiazol-2-yl)methyl]-3-ethyl-2,3-dihydro-1H-imidazol-2-one]",
,5.39,5.96,188,193,,,< 0.91,0.415,1.35,"COc1ccc(Cc2cn(Cc3nc4nc(Cl)ccc4[nH]3)c(=O)n2CC(F)F)c(Cl)c1 [Compound 2258, 1-({5-chloro-1H-imidazo[4,5-b]pyridin-2-yl}methyl)-4-[(2-chloro-4-methoxyphenyl)methyl]-3-(2,2-difluoroethyl)-2,3-dihydro-1H-imidazol-2-one]",
> 2,,,,,,138,168,,,"COc1ccc(-c2nccn3c(=O)n(Cc4nc5c(Cl)c(Cl)ccc5[nH]4)cc23)c(Cl)c1 [Compound 2254, 8-(2-chloro-4-methoxyphenyl)-2-[(6,7-dichloro-1H-1,3-benzodiazol-2-yl)methyl]-2H,3H-imidazo[1,5-a]pyrazin-3-one]",
,367,,> 2000,,< 40 nM,74.5,3.73,> 2.5,,"NCCn1c(Cc2ccc(Cl)cc2Cl)cn(Cc2nc3ccc(Cl)nc3[nH]2)c1=O [Compound 2214, 3-(2-aminoethyl)-1-((5-chloro-3H-imidazo[4,5-b]pyridin-2-yl)methyl)-4-(2,4-dichlorobenzyl)-1,3-dihydro-2H-imidazol-2-one]",
1.87,302,,,,< 40 nM,75.3,29,1.16,,"COc1ccc(-c2ccc(N)c3nc(Cc4nc5nc(Cl)ccc5[nH]4)cn23)c(Cl)c1 [Compound 2171, 2-({5-chloro-1H-imidazo[4,5-b]pyridin-2-yl}methyl)-5-(2-chloro-4-methoxyphenyl)imidazo[1,2-a]pyridin-8-amine]",
,> 5000,,> 2000,,< 40 nM,53.2,287,,,"O=C(O)Cn1c(C(=O)c2ccc(Cl)cc2Cl)cn(Cc2nc3ccc(Cl)nc3[nH]2)c1=O [Compound 2216, 2-[3-({5-chloro-1H-imidazo[4,5-b]pyridin-2-yl}methyl)-5-(2,4-dichlorobenzoyl)-2-oxo-2,3-dihydro-1H-imidazol-1-yl]acetic acid]",

# The remaining lines, values behind:
SMILES,MIC [1] [µg/mL],EC50 ([2]; Trypanosoma cruzi) [nM],EC50 [2] [nM],EC50 ([3]; Cryptosporidium parvum) [nM],EC50 [3] [nM],IC50 [4],"IC50 [5, 8] [nM]",EC50 ([6]; Trypanosoma brucei) [nM],MIC [7] [µg/mL],EC50 [6] [nM],IC50 [5] [nM]
"COc1ccc(Cc2cn(Cc3nc4nc(Br)ccc4[nH]3)c(=O)n2CC(F)F)c(Cl)c1 [Compound 2257, 1-({5-bromo-1H-imidazo[4,5-b]pyridin-2-yl}methyl)-4-[(2-chloro-4-methoxyphenyl)methyl]-3-(2,2-difluoroethyl)-2,3-dihydro-1H-imidazol-2-one]",0.876,8.03,8.17,310,219,,,,,,
"COc1ccc(Cc2cn(Cc3nc4nc(Cl)ccc4[nH]3)c(=O)n2CC(C)(C)NC(C)=O)c(Cl)c1 [Compound 2209, N-{1-[3-({5-chloro-1H-imidazo[4,5-b]pyridin-2-yl}methyl)-5-[(2-chloro-4-methoxyphenyl)methyl]-2-oxo-2,3-dihydro-1H-imidazol-1-yl]-2-methylpropan-2-yl}acetamide]",,4620,,> 2000,,380 nM and 781 nM,,,,,
"COc1ccc(-c2cnn3c2CN(Cc2nc4nc(F)ccc4[nH]2)CC3)c(Cl)c1 [Compound 2170, 2-((3-(2-chloro-4-methoxyphenyl)-6,7-dihydropyrazolo[1,5-a]pyrazin-5(4H)-yl)methyl)-5-fluoro-1H-imidazo[4,5-b]pyridine]",,1330,,1780,,< 40 nM,< 40,64.5,,,
"COc1ccc(-c2cccc3c2CN(Cc2nc4nc(C(F)(F)F)nc(N)c4[nH]2)C3=O)c(Cl)c1 [Compound 2252, 2-((6-amin0-2-(trifluoromethyl)-7H-purin-8-yl)methyl)-4-(2-chloro-4-methoxyphenyl)isoindolin-1-one]",> 2,630,,,,,431,268,,,
"Clc1ccc(Cc2cn(Cc3nc4cc(Cl)ccc4[nH]3)cn2)c(Cl)c1 [Compound 2192, 6-chlor0-2-({4-[(2,4-dichlorophenyl)-methyl]-1H-imidazol-1-yl}methyl)-1H-1,3-benzodiazole]",,516,,> 2000,,< 40 nM,,85.2,,,114
"C#CCn1c(Cc2ccc(Cl)cc2Cl)cn(Cc2nc3ccc(F)nc3[nH]2)c1=O [Compound 2085, 4-[(2,4-dichlorophenyl)methyl]-1-({5-fluoro-1H-imidazo[4,5-b]pyridin-2-yl}methyl)-3-(prop-2-yn-1-yl)-2,3-dihydro-1H-imidazol-2-one]",,514,,834,683,< 40 nM,< 40,4.56,1.71,9.03,
"O=c1n(Cc2nc3c(F)c(F)ccc3[nH]2)cc(Cc2ccc(Cl)cc2Cl)n1CC1CCNCC1(F)F (stereo not drawn) [Compound 2264, 5-(2,4-dichlorobenzyl)-3-((4,5-difluoro-1H-benzo[d]imidazol-2-yl)methyl)-1-((3,3-difluoropiperidin-4-yl)methyl)-1H-imidazol-2(3H)-one]",,133,,> 2000,,,,39.9,1.22,73.1,
"O=c1n(Cc2nc3ccc(F)nc3[nH]2)cc(Cc2ccc(Cl)cc2Cl)n1C1CCCCC1 [Compound 2071, 3-cyclohexyl-4-[(2,4-dichlorophenyl)methyl]-1-({5-fluoro-1H-imidazo[4,5-b]pyridin-2-yl}methyl)-2,3-dihydro-1H-imidazol-2-one]",,526,,> 2000,,< 40 nM,< 40,,> 2.5,,
"COc1ccc(-c2ccc(NC(C)=O)c3nc(Cc4nc5nc(F)ccc5[nH]4)cn23)c(Cl)c1 [Compound 2183, N-[5-(2-chloro-4-methoxyphenyl)-2-({5-fluoro-1H-imidazo[4,5-b]pyridin-2-yl}methyl)imidazo[1,2-a]pyridin-8-yl]acetamide]",,116,,629,,< 40 nM,< 40,,0.245,,
"O=c1n(Cc2nc3nc(F)ccc3[nH]2)cc(Cc2ccc(Cl)cc2Cl)n1CCO [Compound 2086, 4-[(2,4-dichlorophenyl)-methyl]-1-({5-fluoro-1H-imidazo[4,5-b]pyridin-2-yl}methyl)-3-(2-hydroxyethyl)-2,3-dihydro-1H-imidazol-2-one]",> 2.5,552,,,,< 40 nM,41.2,5.94,0.964,7.64,
